Common to all, as to assay type: cell-based
Experiment [1] has as its target T1, SP174 receptor (Homo sapiens, UniProt Q9BPV8).
T1 sequence (Q9BPV8 1-333 isoform Q9BPV8-2): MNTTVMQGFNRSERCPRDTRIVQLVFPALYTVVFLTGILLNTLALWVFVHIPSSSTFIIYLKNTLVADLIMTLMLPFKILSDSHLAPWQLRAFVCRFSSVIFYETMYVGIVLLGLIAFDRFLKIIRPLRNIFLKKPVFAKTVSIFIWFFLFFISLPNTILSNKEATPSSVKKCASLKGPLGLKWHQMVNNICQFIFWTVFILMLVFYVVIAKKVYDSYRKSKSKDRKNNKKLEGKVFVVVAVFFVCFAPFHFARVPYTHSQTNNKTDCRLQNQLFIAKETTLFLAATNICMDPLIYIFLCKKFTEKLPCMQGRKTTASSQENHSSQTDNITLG
Kind of experiment: SP174 receptor ligand identification, Ca2+ FLIPR in transfected mammalian cells (description section). Details: expressed in transfected cells. The note with it: values given in the description; SP174 in pcDNA3.1 transfected into mammalian cells; read-out: EC50 for SP174 (agonists). As to the method: (§1) In order to identify SP174 receptor ligands the SP174 open reading frame was subcloned into the pcDNA3.1 expression vector under the control of the CMV promoter and transfected into mammalian cells. After allowing two days for receptor expression, the transfected cells were seeded into 96 well plates, loaded with the Ca^2+ sensitive Fluo-3AM dye and challenged with various compounds. The peak increments in Ca^2+ evoked by the test compounds were measured using the Fluorometric Imaging Plate Reader (FLIPR) system.

Experiment [2] concerns the target T1, SP174 receptor. The experiment is described as follows: FLIPR assay, HEK293f cells transiently co-transfected with SP174 receptor and chimera G protein Gq/i3. The conditions noted are these: Example 1; for EC50: HEK293f cells co-transfected with SP174 and Gq/i3; for specific activity on SP174 transfected cells (FLIPR screen of ligand collection): versus vector/Gq/i3 negative control. Details: expressed in transfected cells; host or cells: HEK293f cells (G-418-resistant HEK293), transient, lipofectamine. From the text: SP174 receptor cDNA was subcloned into the pcDNA3.1 expression vector (Invitrogen) and transiently co-transfected with chimera G protein Gq/i3 into HEK293f cells using lipofectamine (Gibco-BRL). HEK293f cells are the HEK293 cells which are resistant to G-418. Chimera G protein Gq/i3 was constructed by replacing the C-terminus five amino acid residues of human Gqa with the five amino acid residue of human Gi3a (Conklin et al., Nature, 363, p274-276). pcDNA 3.1 vector DNA was also co-transfected with chimera G protein Gq/i3 as a negative control. The transfected cells were seeded into 96 well plates and incubated overnight at 37° C. in a tissue culture incubator. The growth medium was aspirated and replaced with […] of loading medium (DMEM containing 1% FBS, […]/10% pluronic acid and 2.5 mM Probenecid) and incubated for 1 hour at 37° C. The cells were subsequently washed 3 times with Hank's BSS buffer containing 20 mM HEPES, 2.5 mM Probenecid, and 0.1% BSA using the gentle setting in a Denley cell washer (Denley Instruments). The washed cells were placed in a Fluorometric Imaging Plate Reader (FLIPR) and changes in cellular fluorescence recorded after the addition of various dilutions of tissue extract fractions.
EC50 values for ADP, ADPβS, 2-MeS-ADP, 2-MeS-ATP, 2-Cl-ATP and IDP were […], respectively, and the order of potency was 2-MeS-ATP=2-MeS-ADP>ADP=ADPβS>IDP.
The SP174 receptor assay was similar as Example 1 a. The SP174 receptor cDNA was subcloned into the pcDNA3.1 expression vector (Invitrogen) and transiently co-transfected with Gq/i3 into HEK293f cells using lipofectamine (Gibco-BRL). pcDNA 3.1 vector DNA was also co-transfected with Gq/i3 as a negative control. A variety of nucleotides, RBI small moleculars, and in-house peptide collection were screened. Twelve compounds were identified to be the agonists of the SP174 receptor. Their fluorecence change with different amount of the compounds were detected, the data were processed using Prism software to obtain their EC50 value. Other agonists can be identified using similar approaches. To identify antagonists of the SP174 receptor, two-addition approach was adapted. First, the compounds to be screened were added to the SP174 receptor transfected cells, after 5 minutes 100 nM of ADP were added as second addition and the fluorescence changes were recorded. In this assay antagonists inhibit the fluorecence signal of ADP.

Experiment [3] addresses T1, SP174 receptor. Kind of experiment: cAMP assay (inhibition of adenylyl cyclase) in SP174 receptor cells. Details: expressed in transfected cells. As to the method: as §1, with “system. The endogenous ligand of the SP174 receptor was purified from rat spinal cords using a series of chromatography steps and its structure was identified as being ADP by Mass spectroscopy. […] In addition to ADP, other agonists were also identified for SP174.” for “system.”
The SP174 receptor cDNA was stably transfected into HEK293f cells according standard procedures. The SP174 receptor stable cell line and wild type cell grown on 12-well plates were incubated for 2 hr with 200 μl of medium plus 5 μCi of [3H]adenine/ml. Then 50 μl of Hepes (250 mM, pH 7.5, 50 μM Forskolin, 200 μM IBMX) with the compound to be screened is added to the cells and incubated for 10 minutes at 37° C. Incubations were terminated by addition of 0.8 ml of 5% trichloroacetic acid. [^3H]cAMP was purified using Dowex and alumina chromatography as previously described (Harden et al., Mol. Pharmacol. 21:570-580, 1982).
For orientation: Cyclic AMP is a second messenger, typically raised through Gs and lowered through Gi signalling.

Structures are written as SMILES.

A word on the EC50: it is the midpoint of the concentration-response curve. In the case of `Nc1ncnc2c1ncn2[C@@H]1O[C@H](COP(=O)(O)OP(=O)(O)OP(O)(O)=S)[C@@H](O)[C@H]1O` [ATPγS], at SP174 receptor [1], the EC50 was determined as 8 nM.

Consider `Nc1ncnc2c1ncn2[C@@H]1O[C@H](COP(=O)(O)OP(=O)(O)O)[C@@H](O)[C@H]1O` [ADP], for which, at SP174 receptor [2], the EC50 turned out to be 80 nM and the “specific activity on SP174 transfected cells (FLIPR screen of ligand collection)” value (from here on “specific activity”) was “activate specifically”. The “mode of activation of the SP174 receptor” value on SP174 receptor [3] is on record as “inhibition of adenylyl cyclase”. The EC50 at SP174 receptor [1] was found to be 1.6 nM.

`Nc1ncnc2c1ncn2[C@@H]1O[C@H](COP(=O)(O)OP(=O)(O)OP(=O)(O)O)[C@@H](O)[C@H]1O` [ATP]: the EC50 on SP174 receptor [1] was determined as 0.32 nM.

On to `CSc1nc(N)c2ncn([C@@H]3O[C@H](COP(=O)(O)OP(=O)(O)OP(=O)(O)O)[C@@H](O)[C@H]3O)c2n1` [2-MeS-ATP], for which the results for the EC50 on SP174 receptor [2] and at SP174 receptor [1] were 97 nM and 8 nM, respectively.

As for `CSc1nc(N)c2ncn([C@@H]3O[C@H](COP(=O)(O)OP(=O)(O)O)[C@@H](O)[C@H]3O)c2n1` [2-MeS-ADP], on SP174 receptor [2], the EC50 came to 21 nM and the “specific activity” value was “specifically active”. Also, the EC50 at SP174 receptor [1] is 0.32 nM.

For `Nc1nc(Cl)nc2c1ncn2[C@@H]1O[C@H](COP(=O)(O)OP(=O)(O)OP(=O)(O)O)[C@@H](O)[C@H]1O` [2-Cl-ATP], the EC50 amounted to 94 nM on SP174 receptor [2] and 8 nM on SP174 receptor [1].

Regarding `Nc1ncnc2c1ncn2[C@@H]1O[C@H](COP(=O)(O)OP(=O)(O)OP(=O)(O)OC[C@H]2O[C@@H](n3cnc4c(N)ncnc43)[C@H](O)[C@@H]2O)[C@@H](O)[C@H]1O` [AP3A], on SP174 receptor [2], the “specific activity” value was “specifically active”. The EC50 at SP174 receptor [1] was determined as 8 nM.

In the case of `O=c1[nH]cnc2c1ncn2[C@@H]1O[C@H](COP(=O)(O)OP(=O)(O)O)[C@@H](O)[C@H]1O` [IDP], the EC50 on SP174 receptor [2] came out at 196 nM; on SP174 receptor [1] it was 200 nM.

For the molecule `Nc1ncnc2c1ncn2[C@@H]1O[C@H](COP(=O)(O)OP(O)(O)=S)[C@@H](O)[C@H]1O` [ADPβS], on SP174 receptor [2], a half-maximal response (EC50) required 43 nM and the “specific activity” value is recorded as “specifically active”. Besides, on SP174 receptor [1], the EC50 is 8 nM.

Take `Nc1nc(Cl)nc2c1ncn2[C@@H]1O[C@H](COP(=O)(O)OP(=O)(O)O)[C@@H](O)[C@H]1O` [2-Cl-ADP]: the “specific activity” value at SP174 receptor [2] is “specifically active”.
